Results taken from patent US20250057832A1, “USE OF A CLASS OF 1,4-DIHYDRO-NAPHTHYRIDINE DERIVATIVES IN TREATMENT OF TUMORS” (NEURODAWN PHARMACEUTICAL CO., LTD., priority 2021, published 2025).

How the values were obtained:
[1] = test system: U87MG-Luc glioblastoma cell in situ transplantation tumor; assay: S2 in U87MG-Luc glioblastoma in situ transplantation tumor model in nude mice (Example 4); assay type: in vivo, BALB/c nude mice; details: for Overall survival period: vehicle 31; for Median survival period: vehicle 31.5
Experimental: Before the transplantation, the U87MG-Luc cells were digested with 0.05%-trypsin-EDTA, resuspended with pre-cooled PBS to 4×10^7 cells/mL, and transferred to ice for later use. The nude mice were anesthetized with isoflurane gas, and then fixed on a stereotaxic machine in a prone position. The scalp of the nude mouse was disinfected with iodophor, and incised sagittally with a scalpel. The incision was cleaned with iodophor. The skull was exposed, and drilled with a skull drill extending 1.0 mm in front of the bregma and deviating the right side 2.0 mm. 5 μL of cell suspension (2×10^5 cells) was manually injected with a 10 μL flat-head microsyringe, with inserting the needle to a depth of 3.5 mm, withdrawing the needle 0.5 mm, and injecting for about 10 minutes. After stopping the injection for 5 minutes, the needle was slowly removed, and the incision was sterilized and sutured. Finally 50,000 units of penicillin was injected intramuscularly to prevent infection.
On days 4, 12, 18, and 25 after the transplantation, 200 μL of 15 mg/mL D-luciferin potassium salt solution, which was filtered and sterilized through a 0.22 μm filter, was injected intraperitoneally. After 10 minutes, IVI chemiluminescence detection (bright field+bioluminescence imaging) was performed using the mouse in vivo imaging system (PE company IVIS Lumina XR). Luorescence intensity was analyzed using Living Image software to obtain fluorescence intensity [p/s], which reflected the size of tumor tissue in the brain of experimental animals.
The survival conditions of experimental animals were monitored, and the animals' death dates were recorded timely.
Quantitative data are expressed as mean±standard error. Each pharmacodynamic index was plotted using GraphPad Prism (8.0.1) software, differences between groups were tested by one-way ANOVA or two-way repeat ANOVA, followed by Fisher's LSD test, and survival analysis was performed by Kaplan-Meier. P<0.05 was defined as a significant difference.

[2] = test system: T98G cells; assay: Vacuolation induction in T98G cells (Example 1); assay type: cell-based, human
Experimental: T98G cells were stably passaged twice. When the cell density reached more than 85%, the cells were digested with 0.05% trypsin-EDTA for 3 minutes, resuspended with the culture medium, and plated in a 12-well plate at a certain density, with each well system being 1 mL. The cells were cultured for 24 hours, and added with the compound solution prepared above to each well according to the grouping, so that the concentrations of the compounds in the culture system were respectively 5 μM, 10 μM, 20 μM, 40 μM, and 60 μM. An equal volume of DMSO was added as a control well.
After 6 hours of drug treatment, the plates were observed under a microscope with a 20× objective lens, and five fields of view were randomly selected for each well to take photos and record. If in the observed field of view, bright vacuoles with clear border appeared in the cell, and at least one of the following conditions was met: 1) a cell contained at least 1 vacuole with a diameter greater than 3 μm; 2) a cell contained 3 or more vacuoles with a diameter within the range of 0.5-3 μm, the cell was considered to be methuosis-positive cells.
Among them, CELL positive: the number of methuosis-positive cells; CELL normal: the number of cells with normal morphology

[3] = test system: CHO-K1; assay: Cell viability assay (Example 2); assay type: cell-based, hamster; details: non-tumor cell line CHO-K1, 48 hours
Experimental: U87MG, T98G, U251, SK-N-SH, A-172 and HepG2 cells were adherently cultured in MEM+10% FBS+1% P/S medium and passaged at 1:3; CT26.WT cells were adherently cultured in RPMI-1640+10% FBS+1% P/S medium and passaged at 1:3; CHO-K1 was cultured adherently in Ham's F-12K+10% FBS+[…] medium and passaged at 1:3.
The above various cells were resuscitated and stably passaged twice. When the cell density reached above 85%, the cells were digested with 0.05% trypsin-EDTA for three minutes, resuspended, plated in a 96-well plate at the corresponding density, and cultured for 24 hours. The cells were treated with drugs at final concentrations of the culture system of 0.41 μM, 1.23 μM, 3.7 μM, 11.1 μM, 33.3 μM, and 100 μM. After 48 hours of drug treatment, cell viability was determined using CellCounting-Lite™ 2.0 kit. The plate was added with reagents at 100 µL/well according to the CellCounting-Lite™ 2.0 kit instructions, and shaken for 10 minutes. The luminescence value (LUM) was read on a multi-function plate reader, and the relative viability of the cells was calculated.
Relative viability of tumor cells V (%)=(LUM-LUMbackground)/(LUMnormal control−LUMbackground)×100%. LUMbackground was the background reading of the complete culture medium well added with the detection reagent. The half inhibitory concentration (IC50) was calculated using GraphPad Prism 8.0.1 statistical software.

CCOC(=O)C1=C(C)Nc2nc3c(c(N)c2C1c1ccccc1Cl)CC(C)(C)CC3 (stereo not shown) [Compound S2]
Overall survival period ([1]; S2 0.25 mg/kg): 32 days | Median survival period ([1]; S2 0.25 mg/kg): 32.5 days | Survival rate vs vehicle (Log-rank, FIG. 8) ([1]; S2 0.5 mg/kg IV): significantly increased the survival rate | Tumor growth after two weeks of administration vs vehicle (FIG. 7) ([1]; S2 0.5 mg/kg IV): significant inhibitory effect on tumor growth | Growth of U87MG in situ tumors in the brain vs vehicle (growth curve, FIG. 6) ([1]; S2 0.5 mg/kg IV once a day for 15 days): significantly inhibit the growth | Overall survival period ([1]; S2 0.5 mg/kg): 33 days | Median survival period ([1]; S2 0.5 mg/kg): 33.5 days | Survival rate vs vehicle (Log-rank, FIG. 8) ([1]; S2 1 mg/kg IV): significantly increased the survival rate | Tumor growth after two weeks of administration vs vehicle (FIG. 7) ([1]; S2 1 mg/kg IV): significant inhibitory effect on tumor growth | Growth of U87MG in situ tumors in the brain vs vehicle (growth curve, FIG. 6) ([1]; S2 1 mg/kg IV once a day for 15 days): significantly inhibit the growth | Rank of inhibitory effect on tumor among S2 dose groups ([1]; S2 1 mg/kg IV, after two weeks): strongest inhibitory effect on tumor | Overall survival period ([1]; S2 1 mg/kg): 36 days | Median survival period ([1]; S2 1 mg/kg): 35 days | Growth of U87MG glioma in the brain of nude mice (FIG. 7 legend) ([1]; administration of S2 for 2 weeks, dose not given in legend): inhibited the growth of U87MG glioma | Survival period of nude mice with orthotopically transplanted brain glioma (FIG. 8 legend) ([1]; dose not given in legend): prolonged the survival period | Rank of vacuolation-inducing activity among the derivatives [2]: strongest vacuolation-inducing activity | Induction of vacuolation in T98 cells ([2]; FIG. 1 and Table 1): can induce vacuolation | IC50 ([3]; CHO-K1, 48 h): > 100 µM | IC50 [3]: ~100 µM
